Holding throughout (format): biochemical
Experiment [1] concerns the target T1, MMP2 (Homo sapiens, UniProt P08253).
T1 sequence (P08253 110-660): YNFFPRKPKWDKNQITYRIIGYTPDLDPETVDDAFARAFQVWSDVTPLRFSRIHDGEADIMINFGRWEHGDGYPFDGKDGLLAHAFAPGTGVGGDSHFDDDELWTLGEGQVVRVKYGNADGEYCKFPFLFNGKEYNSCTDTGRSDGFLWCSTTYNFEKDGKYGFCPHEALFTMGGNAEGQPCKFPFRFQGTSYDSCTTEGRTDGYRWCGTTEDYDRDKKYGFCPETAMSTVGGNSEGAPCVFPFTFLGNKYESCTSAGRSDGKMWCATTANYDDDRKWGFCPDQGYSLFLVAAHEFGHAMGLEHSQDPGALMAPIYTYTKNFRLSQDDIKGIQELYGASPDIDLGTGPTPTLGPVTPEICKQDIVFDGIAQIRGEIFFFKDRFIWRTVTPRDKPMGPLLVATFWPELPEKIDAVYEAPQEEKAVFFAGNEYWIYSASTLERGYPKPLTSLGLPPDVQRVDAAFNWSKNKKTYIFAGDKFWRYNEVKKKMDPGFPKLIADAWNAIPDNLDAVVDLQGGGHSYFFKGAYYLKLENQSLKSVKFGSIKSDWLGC
Kind of experiment: MMP-2 colorimetric inhibition assay (Enzo kit BML-AK408). The note with it: thiopeptide substrate, absorbance 415 nm; read-out: MMP 2 IC50 class. The gist of the method: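 Cleavage of the thiopeptide Ac-PLG-[2-mercapto-4-methylpentanoyl]-LG-OC2H5 releases a sulfhydryl that reacts with DTNB, read at 415 nm per the kit protocol. IC50 values (nM) come from inhibition curves of normalized data.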

The target in experiment [2] is T2, MMP1 (Homo sapiens, UniProt P03956).
T2 sequence (P03956 100-269 limits assumed): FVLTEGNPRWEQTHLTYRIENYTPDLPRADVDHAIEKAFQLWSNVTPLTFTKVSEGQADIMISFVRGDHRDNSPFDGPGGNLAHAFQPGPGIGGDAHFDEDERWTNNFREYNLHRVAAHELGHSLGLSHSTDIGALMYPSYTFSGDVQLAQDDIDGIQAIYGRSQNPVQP
Kind of experiment: MMP-1 colorimetric inhibition assay (Enzo kit BML-AK404). The note with it: thiopeptide substrate, absorbance 415 nm; read-out: MMP 1 IC50 class. The gist of the method: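 Colorimetric kit run per manufacturer protocol. MMP-1 cleaves a thiopeptide substrate (Ac-PLG-[2-mercapto-4-methylpentanoyl]-LG-OC2H5); released thiol reacts with DTNB, monitored at 415 nm. IC50 (nM) from inhibition curves of normalized values.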

Experiment [3] addresses MMP9 (Homo sapiens, UniProt P14780). The experiment in a line: MMP-9 colorimetric inhibition assay (Enzo kit BML-AK410). To be noted: thiopeptide substrate, absorbance 415 nm; read-out: MMP 9 IC50 class. The gist of the method: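 Colorimetric thioester-substrate assay: hydrolysis of Ac-PLG-[2-mercapto-4-methylpentanoyl]-LG-OC2H5 frees a thiol that reacts with DTNB, read at 415 nm. Run per kit protocol. IC50 (nM) taken from inhibition curves of normalized values.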

In experiment [4] the target is ADAM17 (TACE) (Homo sapiens, UniProt P78536). Kind of experiment: TACE fluorometric inhibition assay (Enzo kit BML-AK310). To be noted: quenched fluorogenic peptide, ex/em 320/420 nm; read-out: TACE IC50 class. The gist of the method:
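Kit-based TACE assay run per manufacturer's protocol, using quenched fluorogenic peptide Mca-PLAQAV-Dpa-RSSSR-NH2 whose cleavage raises Mca fluorescence. Signal read at ex/em 320/420 nm; IC50 (nM) derived from inhibition curves of normalized values.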

Experiment [5] addresses T3, ADAM10 (Homo sapiens, UniProt O14672).
T3 construct: purchased AnaSpec, Inc. AS-72226
T3 sequence (O14672 214-748): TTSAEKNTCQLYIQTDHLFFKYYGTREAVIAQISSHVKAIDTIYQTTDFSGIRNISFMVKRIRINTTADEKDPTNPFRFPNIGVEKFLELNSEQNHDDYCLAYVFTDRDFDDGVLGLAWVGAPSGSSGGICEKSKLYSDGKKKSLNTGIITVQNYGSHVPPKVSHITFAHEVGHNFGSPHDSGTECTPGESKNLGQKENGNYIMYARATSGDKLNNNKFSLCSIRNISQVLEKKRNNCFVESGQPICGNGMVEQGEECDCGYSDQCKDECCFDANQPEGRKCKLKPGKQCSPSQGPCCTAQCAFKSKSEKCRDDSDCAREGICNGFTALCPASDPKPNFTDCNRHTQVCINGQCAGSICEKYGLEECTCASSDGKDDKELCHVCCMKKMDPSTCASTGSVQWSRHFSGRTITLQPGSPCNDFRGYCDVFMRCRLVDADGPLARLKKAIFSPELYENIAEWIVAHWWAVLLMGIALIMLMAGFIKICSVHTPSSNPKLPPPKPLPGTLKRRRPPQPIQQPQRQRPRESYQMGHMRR
Kind of experiment: SensoLyte 520 ADAM10 fluorometric activity assay (AnaSpec AS-72226). To be noted: FRET peptide substrate, ex/em 495/520 nm; read-out: ADAM 10 IC50 class. As for the experimental part: The inhibitory activities of the compounds of the invention were assessed in 96-well microplate format using MMP1, MMP2, MMP9 and MMP13 colorimetric assay kits and TACE fluorometric assay kit from Enzo Life Sciences, Inc. The inhibitory effect of the compounds of the invention on ADAM10 activity were evaluated in 96-well microplate format using fluorometric assay from AnaSpec, Inc.
SensoLyte® 520 ADAM10 Activity Assay Kit (catalog #AS-72226) is a complete assay system designed to screen ADAM10 inhibitors using FRET-based peptide substrate containing the 5-FAM/QXL™ 520 fluorophore/quencher pair. The fluorescence of 5-FAM is quenched by QXL™ 520 and recovered upon cleavage of the peptide by active ADAM10.
The inhibitory activity of the compounds of the invention against ADAM10 was tested according to the manufacturer's assay protocol and the fluorescence was monitored at excitation/emission wavelengths=495 nm/520 nm using Tecan Infinite® 200 Pro F Nano^+ microplate reader.
The normalized values were analyzed using GraphPadPrism 9 for Windows (GraphPad Software, San Diego, CA, USA) software by plotting inhibition curves and determining the IC50 values (in nM).

Experiment [6] deals with T4, MMP13 (Homo sapiens, UniProt P45452).
T4 construct: purchased Enzo Life Sciences, Inc. BML-AK412
The experiment in a line: MMP-13 colorimetric inhibition assay (Enzo kit BML-AK412). To be noted: thiopeptide substrate, absorbance 415 nm; read-out: MMP 13 IC50 class. The gist of the method: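 Thiopeptide chromogenic substrate (Ac-PLG-[2-mercapto-4-methylpentanoyl]-LG-OC2H5); MMP-13 hydrolysis of the thioester yields a thiol that reacts with DTNB, read at 415 nm. IC50 values (nM) derived from inhibition curves of normalized data.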

Chain of MMP9 (P14780 94-707): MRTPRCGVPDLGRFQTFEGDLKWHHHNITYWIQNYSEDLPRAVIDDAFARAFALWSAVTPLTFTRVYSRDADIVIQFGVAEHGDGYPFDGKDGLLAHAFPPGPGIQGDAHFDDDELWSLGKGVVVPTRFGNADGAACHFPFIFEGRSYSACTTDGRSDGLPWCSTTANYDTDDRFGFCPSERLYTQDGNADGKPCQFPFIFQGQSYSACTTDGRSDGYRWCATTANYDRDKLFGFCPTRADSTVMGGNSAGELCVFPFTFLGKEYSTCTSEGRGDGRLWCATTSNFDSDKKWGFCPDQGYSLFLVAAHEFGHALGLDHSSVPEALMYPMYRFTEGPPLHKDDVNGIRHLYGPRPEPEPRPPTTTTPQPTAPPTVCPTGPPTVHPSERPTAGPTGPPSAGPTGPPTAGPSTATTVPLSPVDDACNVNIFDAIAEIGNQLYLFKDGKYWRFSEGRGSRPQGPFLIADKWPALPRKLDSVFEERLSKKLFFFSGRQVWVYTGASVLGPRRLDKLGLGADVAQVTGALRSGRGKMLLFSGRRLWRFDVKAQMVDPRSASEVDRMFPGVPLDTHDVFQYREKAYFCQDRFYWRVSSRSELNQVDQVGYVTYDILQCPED
Chain of ADAM17 (TACE) (P78536 215-477 limits assumed): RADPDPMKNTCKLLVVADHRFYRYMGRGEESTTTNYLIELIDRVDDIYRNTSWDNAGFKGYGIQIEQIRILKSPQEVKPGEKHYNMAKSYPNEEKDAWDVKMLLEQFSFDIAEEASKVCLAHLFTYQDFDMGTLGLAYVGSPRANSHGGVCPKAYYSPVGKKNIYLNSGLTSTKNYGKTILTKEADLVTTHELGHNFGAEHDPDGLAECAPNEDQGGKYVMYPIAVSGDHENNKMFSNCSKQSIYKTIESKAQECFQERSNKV

One may read the IC50 as the concentration that gives 50% inhibition. For the compound `COCCOC(=O)N1[C@@H]2CC[C@H]1[C@H](C(=O)NO)N(S(=O)(=O)c1ccc(Oc3ccc(C)cc3)nc1)C2` [Example 32, 2-methoxyethyl (1S,2R,5R)-2-(hydroxycarbamoyl)-3-((6-(p-tolyloxy)-pyridin-3-yl)-sulfonyl)-3,8-diazabicyclo[3.2.1]-octane-8-carboxylate], the IC50 is less than 50 nM in experiment [1]; 50 to 1000 nM in experiment [2]; less than 50 nM in experiment [3]; 1000 to 10000 nM in experiment [4]; greater than 10000 nM in experiment [5]; less than 50 nM in experiment [6].

As for `CCOC(=O)N1[C@@H]2CC[C@H]1[C@H](C(=O)NO)N(S(=O)(=O)c1ccc(Oc3ccc(F)cc3)nc1)C2` [Example 65, ethyl (1S,2R,5R)-3-((6-(4-fluorophenoxy)pyridin-3-yl)sulfonyl)-2-(hydroxycarbamoyl)-3,8-diazabicyclo[3.2.1]octane-8-carboxylate], the IC50 in experiment [1] was less than 50 nM; in experiment [2] it was 50 to 1000 nM; in experiment [3], less than 50 nM; in experiment [4], 1000 to 10000 nM; in experiment [5] it was greater than 10000 nM; in experiment [6] it was less than 50 nM.

Take `COCCOC(=O)N1[C@@H]2CC[C@H]1[C@H](C(=O)NO)N(S(=O)(=O)c1ccc(Oc3ccc(F)c(F)c3)nc1)C2` [Example 22, 2-methoxyethyl (1S,2R,5R)-3-((6-(3,4-difluoro-phenoxy)pyridin-3-yl)sulfonyl)-2-(hydroxycarbamoyl)-3,8-diazabicyclo-[3.2.1]octane-8-carboxylate]: the IC50 is less than 50 nM in experiment [1]; 50 to 1000 nM in experiment [2]; less than 50 nM in experiment [3]; 50 to 1000 nM in experiment [4]; greater than 10000 nM in experiment [5]; less than 50 nM in experiment [6].

In the case of `CC(=O)N1[C@@H]2CC[C@H]1[C@H](C(=O)NO)N(S(=O)(=O)c1ccc(Oc3ccc(OCC(F)(F)F)cc3)nc1)C2` [Example 62, (1S,2R,5R)-8-acetyl-N-hydroxy-3-((6-(4-(2,2,2-trifluoro-ethoxy)phenoxy)-pyridin-3-yl)-sulfonyl)-3,8-diazabicyclo[3.2.1]-octane-2-carboxamide], the IC50 in experiment [1] was less than 50 nM; in experiment [2] it was 1000 to 10000 nM; in experiment [3], less than 50 nM; in experiment [4], greater than 10000 nM; in experiment [5] it was greater than 10000 nM; in experiment [6], less than 50 nM.

Regarding `COCCOC(=O)N1[C@@H]2CC[C@H]1[C@H](C(=O)NO)N(S(=O)(=O)c1ccc(Oc3ccc(Cl)cc3)nc1)C2` [Example 8, 2-methoxyethyl (1S,2R,5R)-3-((6-(4-chlorophenoxy)pyridin-3-yl)sulfonyl)-2-(hydroxycarbamoyl)-3,8-diazabicyclo-[3.2.1]octane-8-carboxylate], the IC50 in experiment [1] was less than 50 nM; in experiment [2], 50 to 1000 nM; in experiment [3], less than 50 nM; in experiment [4], 50 to 1000 nM; in experiment [5], 1000 to 10000 nM; in experiment [6] it was less than 50 nM.

In the case of `COCCOC(=O)N1[C@@H]2CC[C@H]1[C@H](C(=O)NO)N(S(=O)(=O)c1ccc(OC3CCCCC3)nc1)C2` [Example 10, 2-methoxyethyl (1S,2R,5R)-3-((6-(cyclohexyloxy)pyridin-3-yl)sulfonyl)-2-(hydroxycarbamoyl)-3,8-diazabicyclo[3.2.1]octane-8-carboxylate], the IC50 in experiment [1] is less than 50 nM; in experiment [2] it was 50 to 1000 nM; in experiment [3], less than 50 nM; in experiment [4], 1000 to 10000 nM; in experiment [5], greater than 10000 nM; in experiment [6], less than 50 nM.

`COCCOC(=O)N1[C@@H]2CC[C@H]1[C@H](C(=O)NO)N(S(=O)(=O)c1ccc(Oc3ccc(OC(F)F)cc3)nc1)C2` [Example 24, 2-methoxyethyl (1S,2R,5R)-3-((6-(4-(difluoromethoxy)phenoxy)pyridin-3-yl)sulfonyl)-2-(hydroxycarbamoyl)-3,8-diazabicyclo[3.2.1]octane-8-carboxylate]: the IC50 is less than 50 nM in experiment [1]; 1000 to 10000 nM in experiment [2]; less than 50 nM in experiment [3]; 50 to 1000 nM in experiment [4]; 1000 to 10000 nM in experiment [5]; less than 50 nM in experiment [6].

With `CC(=O)N1[C@@H]2CC[C@H]1[C@H](C(=O)NO)N(S(=O)(=O)c1ccc(Oc3ccc(OC(C)C)cc3)nc1)C2` [Example 58, (1S,2R,5R)-8-acetyl-N-hydroxy-3-((6-(4-isopropoxyphenoxy)-pyridin-3-yl)-sulfonyl)-3,8-diazabicyclo-[3.2.1]octane-2-carboxamide], the IC50 was less than 50 nM in experiment [1]; 1000 to 10000 nM in experiment [2]; less than 50 nM in experiment [3]; greater than 10000 nM in experiment [4]; greater than 10000 nM in experiment [5]; less than 50 nM in experiment [6].

As to `COCCOC(=O)N1[C@@H]2CC[C@H]1[C@H](C(=O)NO)N(S(=O)(=O)N1CCC(Oc3ccc(F)cc3)CC1)C2` [Example 45, 2-methoxyethyl (1S,2R,5R)-3-((4-(4-fluoro-phenoxy)-piperidin-1-yl)-sulfonyl)-2-(hydroxy-carbamoyl)-3,8-diazabicyclo-[3.2.1]octane-8-carboxylate], the IC50 is less than 50 nM in experiment [1]; 50 to 1000 nM in experiment [2]; less than 50 nM in experiment [3]; 50 to 1000 nM in experiment [4]; 1000 to 10000 nM in experiment [5]; less than 50 nM in experiment [6].

Take `COCCOC(=O)N1[C@@H]2CC[C@H]1[C@H](C(=O)NO)N(S(=O)(=O)c1ccc(Oc3ccc(Cl)cc3F)nc1)C2` [Example 20, 2-methoxyethyl (1S,2R,5R)-3-((6-(4-chloro-2-fluoro-phenoxy)pyridin-3-yl)sulfonyl)-2-(hydroxycarbamoyl)-3,8-diazabicyclo[3.2.1]-octane-8-carboxylate]: the IC50 in experiment [1] was less than 50 nM; in experiment [2], 50 to 1000 nM; in experiment [3] it was less than 50 nM; in experiment [4], 50 to 1000 nM; in experiment [5], 1000 to 10000 nM; in experiment [6], less than 50 nM.

These data come from US20250215010A1, “DIAZABICYCLOOCTANE DERIVATIVES USEFUL AS MATRIX METALLOPROTEINASE INHIBITORS” (VASA THERAPEUTICS SPOLKA Z OGRANICZONA ODPOWIEDZIALNOSCIA, priority 2022, published 2025).
